In PMC11271967, “An inhibitory mechanism of AasS, an exogenous fatty acid scavenger: Implications for re-sensitization of FAS II antimicrobials” (PLOS Pathogens, 2024):
Where “and” joins values, the source holds several entries; their conditions need not be identical. Equal entries are not always repeated. Where two headings read alike, the source gives them in different places.

Columns and labels:
AasS [1] = test: In vitro enzymatic activity of AasS (acyl-ACP formation, conformationally-sensitive urea PAGE, ImageJ semi-quantitation); type: biochemical, Vibrio harveyi
AasS [2] = biological target: T1, AasS (Vibrio harveyi, UniProt Q00IB3); test: Michaelis-Menten curves of AasS reaction with C10-AMS supplemented; type: biochemical
Method: To ascertain this hypothesis, we set up three combinations of AasS reaction with the varied order of C10-AMS inhibitor added in relative to C10 substrate. Namely, these included (i) addition of C10-AMS after C10 pre-incubation (S1B Fig), (ii) simultaneous addition of C10-AMS and C10 (S1C Fig), and (iii) supplementation of C10-AMS prior to C10 (S1D Fig). […] Next, we generated Michaelis-Menten curves of AasS enzyme to evaluate the inhibitory pattern of C10-AMS against ATP cofactor and C10 acyl substrate (S2 Fig).
Supplementary file ppat.1012376.s004.tif: S2 Fig Use of Michaelis-Menten curves to evaluate inhibition mode of AasS by the C10-AMS molecule. Michaelis-Menten curves of AasS reaction for the ATP cofactor (A) and C10 acyl substrate (C), on the condition of C10-AMS inhibitor supplemented at varied concentrations. C10-AMS was added at different level (ranging from 0, 125, 250, to 500 nM). Based on the dogma of Michaelis-Menten equation, a number of crosspoints of two vertically-intersecting dashed-lines (indicated with arrows) were given to determine the values of Km and Vmax. Of note, the coordinate (x,y) of the resultant crosspoint denotes the number (Km, Vmax /2). The values of Km and Vmax for AasS inhibited by C10-AMS in relative to ATP cofactor (B) and C10 substrate (D). […] Designations: Km, Michaelis constant; Vmax, Maximum velocity. (TIF)

AasS(D411A) = test: Microscale thermophoresis (MST), AasS(D411A) mutant; type: binding, Vibrio harveyi; settings: MST
Method: (§1) To validate poor binding of AasS(D411A) to C10 fatty acyl adenylate observed in our ITC assays, the relatively-more sensitive approach of microscale thermophoresis (MST) was additionally applied here as Jerabek-Willemsen et al. described with minor alteration. Using the Protein Labeling Kit (Protein Labeling Kit RED-NHS 2nd Generation, Nano Temper Technology), both the wild-type AasS and its D411A mutant were fluorescently labelled in the MST buffer (150 mM NaCl, 25 mM Tris-HCl, 3 mM MgCl2, 0.05% Tween-20, pH 8.0). The ligand C10-AMP used in MST assays was prepared by an equal mixture of C10 and ATP. In general, an NT.115 Monolith instrument (Nano Temper Technology, Germany) was integrated, of which the routine parameters included a RED/LED (20%) excitation power along with 60% laser power for excitation. Then, the protein samples were siphoned into MST Premium Coated capillaries for the determination of binding affinity at room temperature. The final concentrations of different AasS samples were 40 nM for WT, and 180 nM for D411A, respectively. The mixture of C10/ATP was diluted in a gradient (from 0.15 nM to 5.0 μM). Three independent MST experiments were conducted here. The dissociation constants (Kd) were calculated using the software MO. Affinity Analysis v2.3. Of note, this was largely dependent on the KD model with a 1:1 stoichiometry per binding partner.

AasS [3] = biological target: T1, AasS; test: Microscale thermophoresis (MST), wild-type AasS; type: binding; settings: MST
Method: as §1

AasS [4] = biological target: T1, AasS; test: Isothermal titration calorimetry (ITC), wild-type AasS; type: binding; settings: AasS ~40 μM saturated with ATP 120 μM
Method: The assays of Isothermal titration calorimetry (ITC) were conducted to address the stoichiometry of AasS binding to its C10-AMS inhibitor and C10-AMP intermediate. Since both malic acid and pimelic acid are not substrates for AasS, the two dicarboxylic acids were assumed as negative controls in our ITC analysis. Using a micro-calorimeter (MicroCal PEAQ-ITC) as recently described for E-C7 with little change, totally 18 titrations (2 μl each at an internal of 2.5 min) proceeded in the cell at room temperature. Prior to the titration, AasS protein (~40 μM) was saturated with its ATP cofactor (120 μM) in the cell, and C10-AMS inhibitor (or C10) was kept at 600 μM in the syringe. The titration buffer was composed of 150 mM NaCl, 25 mM Tris-HCl (pH8.0), 2 mM DTT, and 3 mM MgCl2. One set of site model by the MicroCal PEAQ-ITC software enabled plotting the titration curves. Next, the stoichiometry (N) and dissociation constant (Kd) were calculated. It was given as an average ± standard deviation (SD) from three independent trials.

[5] = increasing C10-AMS while varying ATP

T1 sequence (Q00IB3 entry or part of it): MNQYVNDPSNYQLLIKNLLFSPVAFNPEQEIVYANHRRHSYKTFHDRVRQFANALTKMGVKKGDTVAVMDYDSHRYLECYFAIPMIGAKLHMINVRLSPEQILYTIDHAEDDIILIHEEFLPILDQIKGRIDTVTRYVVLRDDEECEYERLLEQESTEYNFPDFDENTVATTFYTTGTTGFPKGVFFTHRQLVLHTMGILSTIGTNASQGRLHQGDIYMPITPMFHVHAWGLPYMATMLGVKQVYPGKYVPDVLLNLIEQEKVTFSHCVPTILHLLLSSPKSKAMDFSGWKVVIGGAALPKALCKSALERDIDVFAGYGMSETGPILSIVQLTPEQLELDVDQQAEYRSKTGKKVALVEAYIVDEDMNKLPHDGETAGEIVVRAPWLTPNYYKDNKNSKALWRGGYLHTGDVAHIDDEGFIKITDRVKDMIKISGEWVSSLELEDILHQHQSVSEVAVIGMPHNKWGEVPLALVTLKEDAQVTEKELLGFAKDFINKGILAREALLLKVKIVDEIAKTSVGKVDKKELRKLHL

CCCCCCCCCC(=O)NS(=O)(=O)OC[C@H]1O[C@@H](n2cnc3c(N)ncnc32)[C@H](O)[C@@H]1O [C10-AMS]
inhibition of C10 fatty acylation, Average (S1E Fig, second block; order of addition not printed) (AasS [1]): 64.1924% and 78.0145% and 84.8528% and 86.8699%
inhibition of C10 fatty acylation, Average (S1E Fig, third block; order of addition not printed) (AasS [1]): 82.6351% and 89.1845% and 93.1119% and 91.664%
Ki (AasS [1]; C10 substrate fixed at 80 μM, AasS 3 nM, semi-quantitative gel assay, read-out: inhibition constant (Ki) of C10-AMS vs AasS): ~620 nM and 620 nM and ~600 nM
Ki (AasS [1]; E-C7 600 μM, AasS 31.25 nM, read-out: Ki for E-C7 acyl substrate): ~2950 nM and 2950 nM
Ki (AasS [1]; condition 1#, C10 80 μM, AasS 3 nM, read-out: Ki, order-of-addition experiment): 670 nM
Ki (AasS [1]; condition 2#, C10 80 μM, AasS 3 nM, read-out: Ki, order-of-addition experiment): 1370 nM
AasS reaction rate, Michaelis-Menten curve for ATP, Average (AasS [2]; 125 nM C10-AMS, ATP 0.125 (unit not given)): 0.1701
AasS reaction rate, Michaelis-Menten curve for ATP, Average (AasS [2]; 125 nM C10-AMS, ATP 0.25): 0.2829
AasS reaction rate, Michaelis-Menten curve for ATP, Average (AasS [2]; 125 nM C10-AMS, ATP 0.5): 0.452
AasS reaction rate, Michaelis-Menten curve for ATP, Average (AasS [2]; 125 nM C10-AMS, ATP 1): 0.6373
AasS reaction rate, Michaelis-Menten curve for ATP, Average (AasS [2]; 125 nM C10-AMS, ATP 2): 0.8268
AasS reaction rate, Michaelis-Menten curve for C10 acyl substrate, Average (AasS [2]; 125 nM C10-AMS, C10 5 (unit not given)): 0.6857
AasS reaction rate, Michaelis-Menten curve for C10 acyl substrate, Average (AasS [2]; 125 nM C10-AMS, C10 10): 0.7781
AasS reaction rate, Michaelis-Menten curve for C10 acyl substrate, Average (AasS [2]; 125 nM C10-AMS, C10 20): 0.8956
AasS reaction rate, Michaelis-Menten curve for C10 acyl substrate, Average (AasS [2]; 125 nM C10-AMS, C10 40): 0.924
AasS reaction rate, Michaelis-Menten curve for ATP, Average (AasS [2]; 250 nM C10-AMS, ATP 0.125 (unit not given)): 0.1042
AasS reaction rate, Michaelis-Menten curve for ATP, Average (AasS [2]; 250 nM C10-AMS, ATP 0.25): 0.1505
AasS reaction rate, Michaelis-Menten curve for ATP, Average (AasS [2]; 250 nM C10-AMS, ATP 0.5): 0.2695
AasS reaction rate, Michaelis-Menten curve for ATP, Average (AasS [2]; 250 nM C10-AMS, ATP 1): 0.5022
AasS reaction rate, Michaelis-Menten curve for ATP, Average (AasS [2]; 250 nM C10-AMS, ATP 2): 0.6244
AasS reaction rate, Michaelis-Menten curve for C10 acyl substrate, Average (AasS [2]; 250 nM C10-AMS, C10 5 (unit not given)): 0.3359
AasS reaction rate, Michaelis-Menten curve for C10 acyl substrate, Average (AasS [2]; 250 nM C10-AMS, C10 10): 0.4164
AasS reaction rate, Michaelis-Menten curve for C10 acyl substrate, Average (AasS [2]; 250 nM C10-AMS, C10 20): 0.4772
AasS reaction rate, Michaelis-Menten curve for C10 acyl substrate, Average (AasS [2]; 250 nM C10-AMS, C10 40): 0.4877
AasS reaction rate, Michaelis-Menten curve for ATP, Average (AasS [2]; 500 nM C10-AMS, ATP 0.125 (unit not given)): 0.0721
AasS reaction rate, Michaelis-Menten curve for ATP, Average (AasS [2]; 500 nM C10-AMS, ATP 0.25): 0.08914
AasS reaction rate, Michaelis-Menten curve for ATP, Average (AasS [2]; 500 nM C10-AMS, ATP 0.5): 0.1634
AasS reaction rate, Michaelis-Menten curve for ATP, Average (AasS [2]; 500 nM C10-AMS, ATP 1): 0.2728
AasS reaction rate, Michaelis-Menten curve for ATP, Average (AasS [2]; 500 nM C10-AMS, ATP 2): 0.3695
AasS reaction rate, Michaelis-Menten curve for C10 acyl substrate, Average (AasS [2]; 500 nM C10-AMS, C10 5 (unit not given)): 0.2278
AasS reaction rate, Michaelis-Menten curve for C10 acyl substrate, Average (AasS [2]; 500 nM C10-AMS, C10 10): 0.2903
AasS reaction rate, Michaelis-Menten curve for C10 acyl substrate, Average (AasS [2]; 500 nM C10-AMS, C10 20): 0.3259
AasS reaction rate, Michaelis-Menten curve for C10 acyl substrate, Average (AasS [2]; 500 nM C10-AMS, C10 40): 0.3858
change of Michaelis constant (Km) of AasS (AasS [2]; [5]): increase
change of maximum velocity (Vmax) of AasS (AasS [2]; [5]): declined
mode of inhibition against ATP ligand (AasS [2]; varying ATP, C10-AMS 0-500 nM): mixed inhibition
inhibitory pattern for the C10 acyl substrate (AasS [2]; varying C10, C10-AMS 0-500 nM): mixed type of inhibition
Average (DeltaFNorm), AasS(D411A) (AasS(D411A); Dose 1.52588e-10): 4.014
Average (DeltaFNorm), AasS(D411A) (AasS(D411A); Dose 3.05176e-10): 2.739
Average (DeltaFNorm), AasS(D411A) (AasS(D411A); Dose 6.10352e-10): 3.15
Average (DeltaFNorm), AasS(D411A) (AasS(D411A); Dose 1.2207e-9): 3.03
Average (DeltaFNorm), AasS(D411A) (AasS(D411A); Dose 2.44141e-9): -1.436
Average (DeltaFNorm), AasS(D411A) (AasS(D411A); Dose 4.88281e-9): 1.165
Average (DeltaFNorm), AasS(D411A) (AasS(D411A); Dose 9.76563e-9): 0.1826
Average (DeltaFNorm), AasS(D411A) (AasS(D411A); Dose 1.95313e-8): -0.6893
Average (DeltaFNorm), AasS(D411A) (AasS(D411A); Dose 3.90625e-8): 2.194
Average (DeltaFNorm), AasS(D411A) (AasS(D411A); Dose 7.8125e-8): -2.669
Average (DeltaFNorm), AasS(D411A) (AasS(D411A); Dose 1.5625e-7): -0.9022
Average (DeltaFNorm), AasS(D411A) (AasS(D411A); Dose 3.125e-7): -3.911
Average (DeltaFNorm), AasS(D411A) (AasS(D411A); Dose 1.25e-6): -3.293
Average (DeltaFNorm), AasS(D411A) (AasS(D411A); Dose 2.5e-6): -1.334
Average (DeltaFNorm), AasS(D411A) (AasS(D411A); Dose 5e-6): -2.2407
Average (DeltaFNorm), AasS(WT) (AasS [3]; Dose 1.52588e-10): 0.4239
Average (DeltaFNorm), AasS(WT) (AasS [3]; Dose 3.05176e-10): 1.688
Average (DeltaFNorm), AasS(WT) (AasS [3]; Dose 6.10352e-10): 0.6276
Average (DeltaFNorm), AasS(WT) (AasS [3]; Dose 1.2207e-9): -0.2133
Average (DeltaFNorm), AasS(WT) (AasS [3]; Dose 2.44141e-9): -0.7539
Average (DeltaFNorm), AasS(WT) (AasS [3]; Dose 4.88281e-9): -0.9203
Average (DeltaFNorm), AasS(WT) (AasS [3]; Dose 9.76563e-9): -2.469
Average (DeltaFNorm), AasS(WT) (AasS [3]; Dose 1.95313e-8): -0.4913
Average (DeltaFNorm), AasS(WT) (AasS [3]; Dose 3.90625e-8): -0.5142
Average (DeltaFNorm), AasS(WT) (AasS [3]; Dose 7.8125e-8): -1.198
Average (DeltaFNorm), AasS(WT) (AasS [3]; Dose 1.5625e-7): -2.398
Average (DeltaFNorm), AasS(WT) (AasS [3]; Dose 3.125e-7): -4.638
Average (DeltaFNorm), AasS(WT) (AasS [3]; Dose 6.25e-7): -6.534
Average (DeltaFNorm), AasS(WT) (AasS [3]; Dose 1.25e-6): -7.36
Average (DeltaFNorm), AasS(WT) (AasS [3]; Dose 2.5e-6): -8.128
Average (DeltaFNorm), AasS(WT) (AasS [3]; Dose 5e-6): -7.529
stoichiometry (n) (AasS [4]): 0.97±0.16
Kd (AasS [4]; ligand 600 μM in syringe, room temperature, read-out: dissociation constant (Kd)): 14.1 ± 3.82 nM
